In patent US9157904B2, “Wnt antagonists and methods of treatment and screening” (OncoMed Pharmaceuticals, Inc., priority 2010, dated 2015):

Legend:
Format in all cases: in vivo, NOD/SCID mice
PN4 pancreas tumor = PN4 pancreas tumor xenograft, tumor growth; conditions: FZD8-Fc 15 mg/kg i.p. twice weekly, vs control antibody
Description: The anti-tumor activity of FZD8-Fc (54F03) was evaluated in the PN4 pancreas tumor xenograft model. Dissociated OMP-PN4 cells (50,000 per animal) were injected subcutaneously into 6-8 week old male NOD/SCID mice. Tumor growth was monitored weekly and tumor measurements were initiated once tumors were palpable. On day 50, mice with average tumor volumes of 137 mm^3 were randomized into 4 groups of 10 animals each. Animals were injected with either control antibody, FZD8-Fc (15 mg/kg), gemcitabine (2 mg/kg) or a combination of FZD8-Fc and gemcitabine. Administration of the FZD8-Fc and gemcitabine was performed via injection into the intra-peritoneal cavity, once weekly (gemcitabine) or twice weekly (FZD8-Fc). Tumors were measured twice a week and tumor volume was determined using the formula ½(a×b^2); where a=length, and b=breadth. Data are expressed as mean and mean±S.E.M. Group means were compared using Student's two-tailed, unpaired t test.

C28 tumors = assay: CK20 immunohistochemistry of treated C28 tumors; conditions: vs control antibody
Description: Control and treated tumors from the C28 xenograft study described above (Example 6) were harvested at the end of the study. The tumors were excised and immunohistochemistry analysis was performed using standard techniques. Briefly, tumors were fixed in formalin, embedded in paraffin, and tumor sections of 4 um thickness were cut. After deparaffinization and hydration, the tumor sections were subjected to an antigen retrieval process in Tris buffer (pH 9.5). Sections were incubated with hydrogen peroxide (Sigma-Aldrich, St Louis, Mo.) for 10 minutes to block endogenous peroxidases. Anti-CK20 (clone Ks20.8, Dako, Carpinteria, Calif.) antibody in blocking buffer at 1:200 dilution (3% NHS, 1% BSA, 0.1% Tween-20, in PBS) was added to each section and incubated for 1 hour. Slides were rinsed 3 times in PBST for 5 minutes each. Anti-mouse secondary antibody conjugated with HRP (ImmPRESS™ anti-mouse Ig, Vector Laboratories Inc., Burlingame, Calif.) was added to the slides and incubated for 30 minutes. After multiple washes with PBST, Vector Nova Red substrate (Vector Laboratories Inc., Burlingame, Calif.) was added for localization of CK20 antigen.

PN13 tumors = assay: CK20 immunohistochemistry of treated PN13 tumors; conditions: vs control antibody
Description: The cell differentiation capability of FZD8-Fc was also evaluated in the OMP-PN13 pancreas tumor xenograft model. Dissociated OMP-PN13 cells (50,000 per animal) were injected subcutaneously into 6-8 week old male NOD/SCID mice. Tumor growth was monitored weekly and tumor measurements were initiated once tumors were palpable. On day 40 mice with average tumor volume of 114 mm^3 were randomized into 4 groups of 10 animals each. Animals were injected with either control antibody or FZD8-Fc (15 mg/kg). Administration of the FZD8-Fc and control antibody was performed via injection into the intraperitoneal cavity, twice weekly. After 19 days of treatment, the tumors were excised and immunohistochemistry analysis was performed using standard techniques. Briefly, tumors were fixed in formalin, embedded in paraffin, and tumor sections of 4 μm thickness were cut. After deparaffinization and hydration, the tumor sections were subjected to an antigen retrieval process in Tris buffer (pH 9.5). Sections were incubated with hydrogen peroxide (Sigma-Aldrich, St Louis, Mo.) for 10 minutes to block endogenous peroxidases. […]
Tumor sections were obtained and treated as described above. […] The bound antibody was detected using the immunohistochemistry protocol described above.

PN4 tumors = assay: Flow cytometry for ESA and CD44 on treated PN4 tumors; conditions: PN4 tumors harvested day 85, 5 tumors pooled; control antibody 12.7%
Description: Control and treated tumors from the OMP-PN4 xenograft study described above were harvested at the end of the study (day 85). The tumors were processed and dissociated into single cells. Single cell suspensions derived from 5 tumors of each treatment group were pooled, and the pooled samples were then incubated on ice for 30 min with antibodies that bind mouse cells selectively (α-mouse CD45-biotin 1:200 dilution and rat α-mouse H2Kd-biotin 1:100 dilution, BioLegend, San Diego, Calif.), followed by addition of streptavidin-labeled magnetic beads (Invitrogen, Carlsbad, Calif.). Mouse cells were removed with the aid of a magnet. For analysis of human cell surface markers, the single tumor cell suspension was stained with anti-ESA (Biomeda, Hayward, Calif.) and anti-CD44 (BD Biosciences, San Jose, Calif.) antibodies which were directly conjugated to fluorochromes. Dead cells were excluded by using the viability dye DAPI. Flow cytometry was performed using a FACS Aria instrument (Becton Dickinson, Franklin Lakes, N.J.). Side scatter and forward scatter profiles were used to eliminate cell clumps.

Substance: 54F03: Fri domain of human FZD8 fused to human IgG1 Fc with GRA linker; SEQ ID NO:1
- reduction in tumor growth (PN4 pancreas tumor): 66%
- cells expressing CK20 (C28 tumors): increase in cells expressing CK20
- cells expressing CK20 (PN13 tumors): increase in cells expressing CK20
- bulk tumor population expressing both ESA and CD44 at high levels (double positive population) (PN4 tumors): 1.9%
